Measurements from ChEMBL document CHEMBL5365526 (J Med Chem, 2023).
Calls of active or inactive are those of the source. No cut-off for these calls is given here.

Key:
[1] = tested on: A-375; test: Effect on cell migration in human A-375 cells at 0.01 to 1 uM incubated for 24 hrs by crystal violet staining based transwell assay; assay type: functional; details: dose 0.01-1 µM
[2] = Inhibition of M2 macrophage development in PMA-differentiated human THP-1 cells assessed as CD206 surface expression at 0.5 uM incubated for 48 hrs by flow cytometry (reference value: 53.4%); assay type: functional; parameters: scale not given: the % may be the effect or the level left
[3] = biological target: T1, von Hippel-Lindau disease tumor suppressor/Mitogen-activated protein kinase 7 (Homo sapiens, UniProt Q13164+P40337); test: PROTAC activity at VHL/ERK5 in human NCI-H1975 cells assessed as maximal induction of ERK5 degradation incubated for 12 hrs by western blot analysis relative to control; assay type: cell-based
Target sequence in this assay (P40337 whole entry partner): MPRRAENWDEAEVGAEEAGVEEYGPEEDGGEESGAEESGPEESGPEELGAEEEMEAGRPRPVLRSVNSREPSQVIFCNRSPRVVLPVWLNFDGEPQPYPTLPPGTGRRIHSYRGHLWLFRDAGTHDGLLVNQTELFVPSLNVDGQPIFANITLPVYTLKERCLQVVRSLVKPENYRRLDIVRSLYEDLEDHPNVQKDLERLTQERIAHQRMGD
Target sequence in this assay (Q13164 2-816 limits assumed): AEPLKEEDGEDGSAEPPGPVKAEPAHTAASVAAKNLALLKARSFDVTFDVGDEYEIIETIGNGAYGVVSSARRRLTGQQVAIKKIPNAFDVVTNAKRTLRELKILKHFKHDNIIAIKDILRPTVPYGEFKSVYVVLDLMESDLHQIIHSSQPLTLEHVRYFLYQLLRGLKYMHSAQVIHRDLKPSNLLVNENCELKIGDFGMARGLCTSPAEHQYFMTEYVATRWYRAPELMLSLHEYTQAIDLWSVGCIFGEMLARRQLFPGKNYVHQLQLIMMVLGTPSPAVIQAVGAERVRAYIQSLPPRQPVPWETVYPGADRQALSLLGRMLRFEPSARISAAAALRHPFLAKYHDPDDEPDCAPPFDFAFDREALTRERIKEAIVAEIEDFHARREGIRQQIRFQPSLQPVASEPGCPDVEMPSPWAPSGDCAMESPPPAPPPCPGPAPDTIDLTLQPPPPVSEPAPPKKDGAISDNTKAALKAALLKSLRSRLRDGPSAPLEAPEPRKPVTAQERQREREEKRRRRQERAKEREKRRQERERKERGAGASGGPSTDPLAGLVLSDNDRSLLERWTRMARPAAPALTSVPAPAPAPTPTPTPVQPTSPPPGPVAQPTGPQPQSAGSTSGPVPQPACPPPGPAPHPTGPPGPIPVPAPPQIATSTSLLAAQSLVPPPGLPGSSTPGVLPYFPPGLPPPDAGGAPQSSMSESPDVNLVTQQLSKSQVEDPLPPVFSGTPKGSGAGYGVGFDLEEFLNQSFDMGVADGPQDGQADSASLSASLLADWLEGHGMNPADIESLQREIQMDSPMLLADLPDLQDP

[4] = tested on: A-375; test: Antiproliferative activity against human A-375 cells assessed as reduction in cell viability incubated for 72 hrs by CCK8 assay; assay type: functional, cell-based
[5] = tested on: A-375; test: Inhibition of M2 macrophage development in human A-375 cells assessed as inhibition of cell colony formation at 0.5 uM cultured in macrophage M0 medium and measured after 7 days in presence of LPS by crystal violet staining based analysis; assay type: functional; details: time 7.0 day
[6] = tested on: HCT-116; test: Effect on trametinib-induced antitumor activity against human HCT-116 cells assessed as reduction in cell viability at 200 nM incubated for 72 hrs by CCK8 assay; assay type: functional, cell-based
[7] = tested on: MDA-MB-231; test: Antiproliferative activity against human MDA-MB-231 cells assessed as reduction in cell viability incubated for 72 hrs by CCK8 assay; assay type: functional, cell-based
[8] = biological target: T1, von Hippel-Lindau disease tumor suppressor/Mitogen-activated protein kinase 7; test: PROTAC activity at VHL/ERK5 in human THP-1 cells assessed as decrease in IL-10 level at 0.5 uM incubated for 0.5 hrs followed by incubation with LPS for 24 hrs; assay type: cell-based; details: time 24.5 hrs
Target sequence in this assay (P40337 whole entry partner): as the sequence (P40337 whole entry partner) above
Target sequence in this assay (Q13164 2-816 limits assumed): as the sequence (Q13164 2-816 limits assumed) above

[9] = tested on: HCT-116; test: Inhibition of M2 macrophage development in human HCT-116 cells assessed as inhibition of cell colony formation at 0.5 uM cultured in specific M2 medium and measured after 7 days in presence of LPS by crystal violet staining based analysis; assay type: functional; details: time 7.0 day
[10] = tested on: HCT-116; test: Effect on mirdametinib-induced antitumor activity against human HCT-116 cells assessed as reduction in cell viability at 200 nM incubated for 72 hrs by CCK8 assay; assay type: functional, cell-based
[11] = tested on: A-375; test: Effect on GDC0994-induced antitumor activity against human A-375 cells assessed as reduction in cell viability at 200 nM incubated for 72 hrs by CCK8 assay; assay type: functional, cell-based
[12] = biological target: T1, von Hippel-Lindau disease tumor suppressor/Mitogen-activated protein kinase 7; test: PROTAC activity at VHL/ERK5 in human HepG2 cells assessed as induction of ERK5 degradation incubated for 12 hrs by western blot analysis; assay type: cell-based
Target sequence in this assay (Q13164 whole entry): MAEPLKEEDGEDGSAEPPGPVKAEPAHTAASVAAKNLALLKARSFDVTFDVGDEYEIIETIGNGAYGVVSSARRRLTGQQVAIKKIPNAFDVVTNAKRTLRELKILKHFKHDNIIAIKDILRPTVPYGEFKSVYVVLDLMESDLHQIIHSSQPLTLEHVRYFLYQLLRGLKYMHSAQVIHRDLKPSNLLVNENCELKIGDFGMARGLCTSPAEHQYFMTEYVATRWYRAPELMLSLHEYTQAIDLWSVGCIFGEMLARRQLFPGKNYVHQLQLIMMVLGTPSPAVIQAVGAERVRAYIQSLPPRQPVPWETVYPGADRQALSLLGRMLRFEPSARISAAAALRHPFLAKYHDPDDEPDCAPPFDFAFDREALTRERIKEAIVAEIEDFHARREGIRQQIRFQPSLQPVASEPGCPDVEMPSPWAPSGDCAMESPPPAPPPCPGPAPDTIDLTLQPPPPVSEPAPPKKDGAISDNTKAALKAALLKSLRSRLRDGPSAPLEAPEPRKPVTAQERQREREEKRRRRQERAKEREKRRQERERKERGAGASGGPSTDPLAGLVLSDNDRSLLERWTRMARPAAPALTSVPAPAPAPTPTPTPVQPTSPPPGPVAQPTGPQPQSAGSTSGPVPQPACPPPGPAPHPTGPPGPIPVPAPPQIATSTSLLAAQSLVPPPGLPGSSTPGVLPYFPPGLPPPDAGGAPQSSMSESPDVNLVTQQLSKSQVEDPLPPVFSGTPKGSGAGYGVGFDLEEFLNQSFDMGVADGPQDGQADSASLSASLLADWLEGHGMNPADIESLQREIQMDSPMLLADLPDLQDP
Target sequence in this assay (P40337 whole entry): as the sequence (P40337 whole entry partner) above

[13] = tested on: HCT-116; test: Effect on vemurafenib-induced antitumor activity against human HCT-116 cells assessed as reduction in cell viability at 200 nM incubated for 72 hrs by CCK8 assay; assay type: functional, cell-based
[14] = biological target: T1, von Hippel-Lindau disease tumor suppressor/Mitogen-activated protein kinase 7; test: PROTAC activity at VHL/ERK5 in human MDA-MB-231 cells assessed as maximal induction of ERK5 degradation incubated for 12 hrs by western blot analysis relative to control; assay type: cell-based
Target sequence in this assay (P40337 whole entry partner): as above
Target sequence in this assay (Q13164 2-816 limits assumed): as the sequence (Q13164 2-816 limits assumed) above

[15] = tested on: HCT-116; test: Antiproliferative activity against human HCT-116 cells assessed as reduction in cell viability incubated for 72 hrs by CCK8 assay; assay type: functional, cell-based
[16] = biological target: T1, von Hippel-Lindau disease tumor suppressor/Mitogen-activated protein kinase 7; test: PROTAC activity at VHL/ERK5 in human A-375 cells assessed as induction of ERK5 degradation at 200 nM incubated for 12 hrs by western blot analysis; assay type: cell-based
Target sequence in this assay (P40337 whole entry partner): as the sequence (P40337 whole entry partner) above
Target sequence in this assay (Q13164 2-816 limits assumed): as the sequence (Q13164 2-816 limits assumed) above

[17] = tested on: HCT-116; test: Effect on cell migration in human HCT-116 cells at 0.01 to 1 uM incubated for 24 hrs by crystal violet staining based transwell assay; assay type: functional; details: dose 0.01-1 µM
[18] = tested on: A-375; test: Inhibition of cell colony formation in human A-375 cells at 0.5 uM cultured in 8% FBS and measured after 7 days in presence of LPS by crystal violet staining based analysis; assay type: functional; details: time 7.0 day
[19] = biological target: T1, von Hippel-Lindau disease tumor suppressor/Mitogen-activated protein kinase 7; test: PROTAC activity at VHL/ERK5 in human A-375 cells assessed as induction of ERK5 degradation at 1.1 microM incubated for 12 hrs by western blot analysis; assay type: cell-based
Target sequence in this assay (P40337 whole entry partner): as the sequence (P40337 whole entry partner) above
Target sequence in this assay (Q13164 2-816 limits assumed): as the sequence (Q13164 2-816 limits assumed) above

[20] = tested on: A-375; test: Effect on ERK5 mRNA expression in human A-375 cells at 10 to 1000 nM incubated for 24 hrs by real-time PCR analysis; assay type: functional, cell-based; details: dose 10-1000 nM
[21] = biological target: T1, von Hippel-Lindau disease tumor suppressor/Mitogen-activated protein kinase 7; test: PROTAC activity at VHL/ERK5 in human A-375 cells assessed as induction of ERK5 degradation at 200 nM pretreated for 1 hr with proteasome inhibitor, MG132 followed by incubation with compound for 12 hrs by western blot analysis; assay type: cell-based
Target sequence in this assay (P40337 whole entry partner): as the sequence (P40337 whole entry partner) above
Target sequence in this assay (Q13164 2-816 limits assumed): as the sequence (Q13164 2-816 limits assumed) above

[22] = tested on: HCT-116; test: Inhibition of cell colony formation in human HCT-116 cells at 0.5 uM cultured in 8% FBS and measured after 7 days in presence of LPS by crystal violet staining based analysis; assay type: functional; details: time 7.0 day
[23] = tested on: A-375; test: Effect on trametinib-induced antitumor activity against human A-375 cells assessed as reduction in cell viability at 200 nM incubated for 72 hrs by CCK8 assay; assay type: functional, cell-based
[24] = biological target: T1, von Hippel-Lindau disease tumor suppressor/Mitogen-activated protein kinase 7; test: PROTAC activity at VHL/ERK5 in human HCT-116 cells assessed as maximal induction of ERK5 degradation incubated for 12 hrs by western blot analysis relative to control; assay type: cell-based
[25] = biological target: T1, von Hippel-Lindau disease tumor suppressor/Mitogen-activated protein kinase 7; test: PROTAC activity at VHL/ERK5 in human A-375 cells assessed as induction of ERK5 degradation at 200 nM pretreated for 1 hr with E3 ligase inhibitor, MLN4924 followed by incubation with compound for 12 hrs by western blot analysis; assay type: cell-based
[26] = tested on: A-375; test: Inhibition of M2 macrophage development in human A-375 cells assessed as inhibition of cell colony formation at 0.5 uM cultured in specific M2 medium and measured after 7 days in presence of LPS by crystal violet staining based analysis; assay type: functional; details: time 7.0 day
[27] = tested on: A-375; test: Effect on vemurafenib-induced antitumor activity against human A-375 cells assessed as reduction in cell viability at 200 nM incubated for 72 hrs by CCK8 assay; assay type: functional, cell-based
[28] = biological target: T1, von Hippel-Lindau disease tumor suppressor/Mitogen-activated protein kinase 7; test: PROTAC activity at VHL/ERK5 in human HepG2 cells assessed as maximal induction of ERK5 degradation incubated for 12 hrs by western blot analysis relative to control; assay type: cell-based
[29] = biological target: von Hippel-Lindau disease tumor suppressor/Leucine-rich repeat serine/threonine-protein kinase 2 (Homo sapiens) (UniProt Q5S007+P40337); test: PROTAC activity at VHL/LRRK2 in human A-375 cells assessed as induction of LRRK2 degradation at 6 to 500 nM incubated for 12 hrs by western bot analysis; assay type: cell-based; details: dose 6-500 nM
[30] = biological target: T1, von Hippel-Lindau disease tumor suppressor/Mitogen-activated protein kinase 7; test: PROTAC activity at VHL/ERK5 in human NCI-H1975 cells assessed as induction of ERK5 degradation incubated for 12 hrs by western blot analysis; assay type: cell-based
Target sequence in this assay (Q13164 whole entry): as the sequence (Q13164 whole entry) above
Target sequence in this assay (P40337 whole entry): as the sequence (P40337 whole entry partner) above

[31] = biological target: von Hippel-Lindau disease tumor suppressor/Serine/threonine-protein kinase DCLK1 (Homo sapiens) (UniProt O15075+P40337); test: PROTAC activity at VHL/DCLK1 in human A-375 cells assessed as induction of DCLK1 degradation at 6 to 500 nM incubated for 12 hrs by western bot analysis; assay type: cell-based; details: dose 6-500 nM
[32] = biological target: T1, von Hippel-Lindau disease tumor suppressor/Mitogen-activated protein kinase 7; test: PROTAC activity at VHL/ERK5 in human PC-3 cells assessed as maximal induction of ERK5 degradation incubated for 12 hrs by western blot analysis relative to control; assay type: cell-based
[33] = biological target: T1, von Hippel-Lindau disease tumor suppressor/Mitogen-activated protein kinase 7; test: PROTAC activity at VHL/ERK5 in human PC-3 cells assessed as induction of ERK5 degradation incubated for 12 hrs by western blot analysis; assay type: cell-based
Target sequence in this assay (Q13164 whole entry): as the sequence (Q13164 whole entry) above
Target sequence in this assay (P40337 whole entry): as the sequence (P40337 whole entry partner) above

Sequence of von Hippel-Lindau disease tumor suppressor/Serine/threonine-protein kinase DCLK1 (Homo sapiens) (O15075 whole entry, looked up): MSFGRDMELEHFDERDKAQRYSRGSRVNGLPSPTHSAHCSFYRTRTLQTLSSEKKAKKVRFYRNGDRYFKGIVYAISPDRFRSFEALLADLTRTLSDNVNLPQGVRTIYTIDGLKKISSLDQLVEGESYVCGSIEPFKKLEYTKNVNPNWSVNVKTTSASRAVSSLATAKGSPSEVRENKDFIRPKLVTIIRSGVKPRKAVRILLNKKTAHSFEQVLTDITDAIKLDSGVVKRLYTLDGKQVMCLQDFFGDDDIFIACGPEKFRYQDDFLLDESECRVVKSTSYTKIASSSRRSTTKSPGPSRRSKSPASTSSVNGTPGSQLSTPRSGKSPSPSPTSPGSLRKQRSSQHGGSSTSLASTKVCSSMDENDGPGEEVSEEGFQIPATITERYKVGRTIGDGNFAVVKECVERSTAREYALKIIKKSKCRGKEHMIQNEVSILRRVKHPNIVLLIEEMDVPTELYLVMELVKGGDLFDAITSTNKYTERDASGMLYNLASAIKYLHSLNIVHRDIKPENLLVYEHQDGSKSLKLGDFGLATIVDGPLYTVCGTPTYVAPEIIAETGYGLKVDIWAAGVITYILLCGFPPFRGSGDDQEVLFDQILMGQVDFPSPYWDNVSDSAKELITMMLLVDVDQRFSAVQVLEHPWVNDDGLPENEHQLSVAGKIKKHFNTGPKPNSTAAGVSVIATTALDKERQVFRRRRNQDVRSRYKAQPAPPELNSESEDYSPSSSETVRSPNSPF
Sequence of von Hippel-Lindau disease tumor suppressor/Serine/threonine-protein kinase DCLK1 (Homo sapiens) (P40337 whole entry, looked up): as the sequence (P40337 whole entry partner) above

With `COc1cc(N2CCN(CCCCCCC(=O)N[C@H](C(=O)N3C[C@H](O)C[C@H]3C(=O)N[C@@H](C)c3ccc(-c4scnc4C)cc3)C(C)(C)C)CC2)ccc1Nc1ncc2c(n1)N(C)c1ccccc1C(=O)N2C` the Activity [1] was “inactive”, the Activity [2] was 41.3% and the Activity [3] was 94.7%. The Activity [4] was “inactive”, the inhibition [5] was “Active” and the Activity [6] was “inactive”. The Activity [7] was “inactive”, the Activity [8] was “Active” and the inhibition [9] was “Active”. The Activity [10] was “inactive”, the Activity [11] was “inactive” and the DC50 [12] was 13.7 nM. The Activity [13] was “inactive”, the Activity [14] was 86.7% and the Activity [15] was “inactive”. For the same compound, the Activity [16] was “Active”, the Activity [17] was “inactive” and the inhibition [18] was “inactive”. For the same compound, the Activity [19] was “inactive”, the Activity [20] was “inactive” and the Activity [21] was “inactive”. For the same compound, the inhibition [22] was “inactive”, the Activity [23] was “inactive” and the Activity [24] was 88.9%. For the same compound, the Activity [25] was “inactive”, the inhibition [26] was “Active” and the Activity [27] was “inactive”. The Activity [28] was 92.7%, the Activity [29] was “inactive” and the DC50 [30] was 11.5 nM. For the same compound, the Activity [31] was “inactive”, the Activity [32] was 89.4% and the DC50 [33] was 23.5 nM.
